For assay [1], the system named is MV4;11 leukemia xenograft. Description: Subcutaneous MV4;11 xenograft antitumor study. As to conditions: 15 mg/kg/day i.p. for 10 days; two cohorts (N = 6 and 8; p < 0.01 and 0.05). The class given is in vivo, NOD-SCID mice. How it is done:
In vivo antitumor activity of compound 1 was evaluated in a commonly used mouse model of MLL-r leukemia, [26]. 10^7 MV4;11 cells in 0.1 mL of saline and Matrigel (1:1) were injected subcutaneously into NOD-SCID mice, which can develop palpable tumors in ~2 weeks.
In vivo antitumor studies. All of the mouse studies were conducted in strict compliance with an IRB-approved protocol. NOD-SCID mice (4 to 6 weeks old, from Jackson lab) were obtained and maintained under specific pathogen-free conditions. 10^7 MV4;11 cells in medical grade saline and Matrigel (1:1, 0.1 mL) were inoculated subcutaneously and palpable tumors (2-3 mm in diameter) were developed in ~ 2 weeks. Mice were treated with compound 1 (15 mg/kg/day for 10 days) in saline (0.1 mL) administered intraperitoneally. Tumors were measured every 2 days and estimated by using the formula a×b^2/2.

In assay [2] the test system is nuclear protein levels in Molm-13 cells. Nature of the assay: Western blot of nuclear proteins. The class given is cell-based. As to conditions: 3 days. As to the method:
Next, we investigated how compound 1 affects these transcription cofactors in the nucleus, where they regulate gene expression. […] DOT1L inhibitor EPZ4777 [25] reduced the methylation levels of H3K79, but not other proteins (Figure 3B). […] In this regard, despite lack of activity against DOT1L, compound 1 can mimic EPZ4777 to reduce H3K79 methylation.
Western blot. 3x10^6 cells/well were treated with increasing concentrations of a compound for 3 days and nuclear proteins extracted with the EpiQuik Nuclear Extraction Kit (Epigentek) according to the manufacturer's protocol. Equal amounts of proteins were separated on SDS-PAGE and transferred to PVDF membranes. The blots were probed with primary antibodies, followed by anti-rabbit or anti-mouse IgG (Thermo Scientific) secondary antibodies. The primary antibodies used in this research were MBP Mouse mAb (#2396, Cell signaling), DOT1L Rabbit mAb (#77087, Cell signaling), MLL-N Rabbit mAb (#14689, Cell signaling), ENL Rabbit mAb (#14893, Cell signaling), Di-Methyl-Histone H3K79 Rabbit mAb (#5427, Cell signaling), Mono-Methyl-Histone H3K79 Rabbit mAb (#9398, Cell signaling), Histone H3 Rabbit mAb (#4499, Cell signaling), AF4 Rabbit pAb (#NBP1-28705, Novusbio) and AFF4 Rabbit pAb (#ab103586, Abcam).
A general note: Immunoblotting shows a protein as a band on a membrane.

On to `CC(C)(C)c1ccc(-n2cc(C(=O)NC3CCNCC3)nc2-c2ccccc2)cc1` [Compound 1], for which the Tumor growth entry in assay [1] is “significantly inhibited tumor growth”. In assay [2], the “Nuclear levels of DOT1L, H3K79me1 and me2, ENL and AFF4” value is “reduced the nuclear levels of DOT1L, H3K79me1 and me2, ENL and AFF4”; the “Nuclear levels of MLL-AF9” value is on record as “unaffected”.

The record behind these values is PMC8344022, “Small-molecule inhibitor of AF9/ENL-DOT1L/AF4/AFF4 interactions suppresses malignant gene expression and tumor growth” (Theranostics, 2021).
